# According to US20260130395A1, “Water Dispersible Botanical Compositions” (Aquila Black Limited, priority 2021, published 2026):
# Test: Stability of cannabinoid compounds and Vitamin E components in Beverage 2 (AB Red) by LCMSMS
# Assay type: physicochemical
structure (smiles),measurement,setting,value
"CCCCCc1cc2c(c(O)c1C(=O)O)[C@@H]1C=C(C)CC[C@H]1C(C)(C)O2 [D9 THCA, delta-9-tetrahydrocannabinolic acid]",Stability of Plant-Derived Cannabinoid Compounds in AB Red,"stored at 8° C., 0 days",1.35 µg/mL
same,Stability of Plant-Derived Cannabinoid Compounds in AB Red,"stored at 8° C., 1 days",1.34 µg/mL
same,Stability of Plant-Derived Cannabinoid Compounds in AB Red,"stored at 8° C., 2 days",1.34 µg/mL
same,Stability of Plant-Derived Cannabinoid Compounds in AB Red,"stored at 8° C., 3 days",1.35 µg/mL
same,Stability of Plant-Derived Cannabinoid Compounds in AB Red,"stored at 8° C., 5 days",1.36 µg/mL
same,Stability of Plant-Derived Cannabinoid Compounds in AB Red,"stored at 8° C., 8 days",1.35 µg/mL
same,Stability of Plant-Derived Cannabinoid Compounds in AB Red,"stored at 8° C., 9 days",1.36 µg/mL
same,Stability of Plant-Derived Cannabinoid Compounds in AB Red,"stored at 8° C., 10 days",1.35 µg/mL
same,Stability of Plant-Derived Cannabinoid Compounds in AB Red,"stored at 8° C., 11 days",1.35 µg/mL
same,Stability of Plant-Derived Cannabinoid Compounds in AB Red,"stored at 8° C., 12 days",1.32 µg/mL
same,Stability of Plant-Derived Cannabinoid Compounds in AB Red,"stored at 8° C., 15 days",1.33 µg/mL
same,Stability of Plant-Derived Cannabinoid Compounds in AB Red,"stored at 8° C., 16 days",1.31 µg/mL
same,Stability of Plant-Derived Cannabinoid Compounds in AB Red,"stored at 8° C., 17 days",1.34 µg/mL
same,Stability of Plant-Derived Cannabinoid Compounds in AB Red,"stored at 8° C., 18 days",1.35 µg/mL
same,Stability of Plant-Derived Cannabinoid Compounds in AB Red,"stored at 8° C., 19 days",1.32 µg/mL
same,Stability of Plant-Derived Cannabinoid Compounds in AB Red,"stored at 8° C., 22 days",1.34 µg/mL
same,Stability of Plant-Derived Cannabinoid Compounds in AB Red,"stored at 8° C., 23 days",1.33 µg/mL
same,Stability of Plant-Derived Cannabinoid Compounds in AB Red,"stored at 8° C., 24 days",1.33 µg/mL
same,Stability of Plant-Derived Cannabinoid Compounds in AB Red,"stored at 8° C., 25 days",1.34 µg/mL
same,Stability of Plant-Derived Cannabinoid Compounds in AB Red,"stored at 8° C., 26 days",1.33 µg/mL
same,Stability of Plant-Derived Cannabinoid Compounds in AB Red,"stored at 8° C., 29 days",1.35 µg/mL
same,Stability of Plant-Derived Cannabinoid Compounds in AB Red,"stored at 8° C., 30 days",1.31 µg/mL
same,Stability of Plant-Derived Cannabinoid Compounds in AB Red,"stored at 8° C., 60 days",1.32 µg/mL
same,Stability of Plant-Derived Cannabinoid Compounds in AB Red,"stored at 8° C., 90 days",1.34 µg/mL
same,Stability of Plant-Derived Cannabinoid Compounds in AB Red,"stored at 8° C., 120 days",1.30 µg/mL
same,Stability of Plant-Derived Cannabinoid Compounds in AB Red,"stored at 8° C., 150 days",1.34 µg/mL
same,Stability of Plant-Derived Cannabinoid Compounds in AB Red,"stored at 8° C., 180 days",1.30 µg/mL
same,Stability of Plant-Derived Cannabinoid Compounds in AB Red,"stored at 8° C., 210 days",1.33 µg/mL
same,Stability of Plant-Derived Cannabinoid Compounds in AB Red,"stored at 8° C., 240 days",1.32 µg/mL
same,Stability of Plant-Derived Cannabinoid Compounds in AB Red,"stored at 8° C., 270 days",1.33 µg/mL
same,Stability of Plant-Derived Cannabinoid Compounds in AB Red,"stored at 8° C., 300 days",1.30 µg/mL
same,Stability of Plant-Derived Cannabinoid Compounds in AB Red,"stored at 8° C., 330 days",1.34 µg/mL
same,Stability of Plant-Derived Cannabinoid Compounds in AB Red,"stored at 8° C., 360 days",1.31 µg/mL
same,Stability of Plant-Derived Cannabinoid Compounds in AB Red,"stored at 8° C., 390 days",1.29 µg/mL
same,Stability of Plant-Derived Cannabinoid Compounds in AB Red,"stored at 8° C., 420 days",1.29 µg/mL
same,Stability of Plant-Derived Cannabinoid Compounds in AB Red,"stored at 8° C., 450 days",1.31 µg/mL
same,Stability of Plant-Derived Cannabinoid Compounds in AB Red,"stored at 8° C., 480 days",1.28 µg/mL
same,Stability of Plant-Derived Cannabinoid Compounds in AB Red,"stored at 8° C., 510 days",1.25 µg/mL
same,Stability of Plant-Derived Cannabinoid Compounds in AB Red,"stored at 8° C., 540 days",1.26 µg/mL
same,Stability of Plant-Derived Cannabinoid Compounds in AB Red,"stored at 8° C., 570 days",1.24 µg/mL
same,Stability of Plant-Derived Cannabinoid Compounds in AB Red,"stored at 21-25° C., 0 days",1.35 µg/mL
same,Stability of Plant-Derived Cannabinoid Compounds in AB Red,"stored at 21-25° C., 1 days",1.34 µg/mL
same,Stability of Plant-Derived Cannabinoid Compounds in AB Red,"stored at 21-25° C., 2 days",1.30 µg/mL
same,Stability of Plant-Derived Cannabinoid Compounds in AB Red,"stored at 21-25° C., 3 days",1.32 µg/mL
same,Stability of Plant-Derived Cannabinoid Compounds in AB Red,"stored at 21-25° C., 5 days",1.36 µg/mL
same,Stability of Plant-Derived Cannabinoid Compounds in AB Red,"stored at 21-25° C., 8 days",1.36 µg/mL
same,Stability of Plant-Derived Cannabinoid Compounds in AB Red,"stored at 21-25° C., 9 days",1.35 µg/mL
same,Stability of Plant-Derived Cannabinoid Compounds in AB Red,"stored at 21-25° C., 10 days",1.33 µg/mL
same,Stability of Plant-Derived Cannabinoid Compounds in AB Red,"stored at 21-25° C., 11 days",1.33 µg/mL
same,Stability of Plant-Derived Cannabinoid Compounds in AB Red,"stored at 21-25° C., 12 days",1.33 µg/mL
same,Stability of Plant-Derived Cannabinoid Compounds in AB Red,"stored at 21-25° C., 15 days",1.30 µg/mL
same,Stability of Plant-Derived Cannabinoid Compounds in AB Red,"stored at 21-25° C., 16 days",1.36 µg/mL
same,Stability of Plant-Derived Cannabinoid Compounds in AB Red,"stored at 21-25° C., 17 days",1.35 µg/mL
same,Stability of Plant-Derived Cannabinoid Compounds in AB Red,"stored at 21-25° C., 18 days",1.36 µg/mL
same,Stability of Plant-Derived Cannabinoid Compounds in AB Red,"stored at 21-25° C., 19 days",1.31 µg/mL
same,Stability of Plant-Derived Cannabinoid Compounds in AB Red,"stored at 21-25° C., 22 days",1.34 µg/mL
same,Stability of Plant-Derived Cannabinoid Compounds in AB Red,"stored at 21-25° C., 23 days",1.36 µg/mL
same,Stability of Plant-Derived Cannabinoid Compounds in AB Red,"stored at 21-25° C., 24 days",1.30 µg/mL
same,Stability of Plant-Derived Cannabinoid Compounds in AB Red,"stored at 21-25° C., 25 days",1.35 µg/mL
same,Stability of Plant-Derived Cannabinoid Compounds in AB Red,"stored at 21-25° C., 26 days",1.32 µg/mL
same,Stability of Plant-Derived Cannabinoid Compounds in AB Red,"stored at 21-25° C., 29 days",1.33 µg/mL
same,Stability of Plant-Derived Cannabinoid Compounds in AB Red,"stored at 21-25° C., 30 days",1.34 µg/mL
same,Stability of Plant-Derived Cannabinoid Compounds in AB Red,"stored at 21-25° C., 60 days",1.28 µg/mL
same,Stability of Plant-Derived Cannabinoid Compounds in AB Red,"stored at 21-25° C., 90 days",1.34 µg/mL
same,Stability of Plant-Derived Cannabinoid Compounds in AB Red,"stored at 21-25° C., 120 days",1.34 µg/mL
same,Stability of Plant-Derived Cannabinoid Compounds in AB Red,"stored at 21-25° C., 150 days",1.28 µg/mL
same,Stability of Plant-Derived Cannabinoid Compounds in AB Red,"stored at 21-25° C., 180 days",1.30 µg/mL
same,Stability of Plant-Derived Cannabinoid Compounds in AB Red,"stored at 21-25° C., 210 days",1.33 µg/mL
same,Stability of Plant-Derived Cannabinoid Compounds in AB Red,"stored at 21-25° C., 240 days",1.31 µg/mL
same,Stability of Plant-Derived Cannabinoid Compounds in AB Red,"stored at 21-25° C., 270 days",1.27 µg/mL
same,Stability of Plant-Derived Cannabinoid Compounds in AB Red,"stored at 21-25° C., 300 days",1.27 µg/mL
same,Stability of Plant-Derived Cannabinoid Compounds in AB Red,"stored at 21-25° C., 330 days",1.28 µg/mL
same,Stability of Plant-Derived Cannabinoid Compounds in AB Red,"stored at 21-25° C., 360 days",1.29 µg/mL
same,Stability of Plant-Derived Cannabinoid Compounds in AB Red,"stored at 21-25° C., 390 days",1.26 µg/mL
same,Stability of Plant-Derived Cannabinoid Compounds in AB Red,"stored at 21-25° C., 420 days",1.26 µg/mL
same,Stability of Plant-Derived Cannabinoid Compounds in AB Red,"stored at 21-25° C., 450 days",1.31 µg/mL
same,Stability of Plant-Derived Cannabinoid Compounds in AB Red,"stored at 21-25° C., 480 days",1.29 µg/mL
same,Stability of Plant-Derived Cannabinoid Compounds in AB Red,"stored at 21-25° C., 510 days",1.27 µg/mL
same,Stability of Plant-Derived Cannabinoid Compounds in AB Red,"stored at 21-25° C., 540 days",1.29 µg/mL
same,Stability of Plant-Derived Cannabinoid Compounds in AB Red,"stored at 21-25° C., 570 days",1.24 µg/mL
